Each block holds one molecule with its values, some of them ahead of it.
Legend:
Type in all cases: functional
[1] = tested on: Metaphire posthuma; assay: Antihelmintic activity against Pheretima posthuma
[2] = tested on: Ascaridia galli; assay: Antihelmintic activity against Ascaridia galli
[3] = tested on: Rodentolepis nana; assay: Antihelmintic activity against Hymenolepis nana
[4] = tested on: Taenia crassiceps; assay: Cysticidal activity against Taenia crassiceps cysts after 11 days by trypan blue exclusion method; details: 264 h
[5] = tested on: Nippostrongylus brasiliensis; assay: Nematocidal activity against Nippostrongylus brasiliensis L4 larval stage
[6] = tested on: Meloidogyne incognita; assay: Nematocidal activity against Meloidogyne incognita second-stage juveniles after 3 days by light microscopic method
[7] = tested on: Haemonchus contortus; assay: Antihelmintic activity against egg stage of Haemonchus contortus
[8] = tested on: Haemonchus contortus; assay: Antihelmintic activity against larval stage of Haemonchus contortus
[9] = tested on: Brugia malayi; assay: Antiparasitic activity against Brugia malayi
[10] = Antiparasitic activity against Taenia solium
[11] = tested on: Haemonchus contortus; assay: Nematocidal activity against Haemonchus contortus
[12] = tested on: Schistosoma mansoni; assay: Antiparasitic activity against Schistosoma mansoni
[13] = tested on: Ascaris suum; assay: Antiparasitic activity against L3 and L4 larval stages of Ascaris suum
[14] = tested on: Caenorhabditis elegans; assay: Nematocidal activity against Caenorhabditis elegans
[15] = tested on: Haemonchus contortus; assay: Antihelmintic activity against Haemonchus contortus L3 larval stage
[16] = tested on: Trichostrongylus colubriformis; assay: Antihelmintic activity against Trichostrongylus colubriformis
[17] = tested on: Meloidogyne incognita; assay: Nematocidal activity against Meloidogyne incognita second-stage juveniles up to 72 hrs
[18] = tested on: Meloidogyne incognita; assay: Nematocidal activity against Meloidogyne incognita; details: for IC50: Meloidogyne incognita
[19] = tested on: Bursaphelenchus xylophilus; assay: Antiparasitic activity against Bursaphelenchus xylophilus
[20] = tested on: Panagrellus redivivus; assay: Antiparasitic activity against Panagrellus redivivus
[21] = tested on: Paramphistomum; assay: Antiparasitic activity against Paramphistomum sp.
[22] = tested on: Raillietina echinobothrida; assay: Antiparasitic activity against Raillietina echinobothrida
[23] = tested on: Setaria cervi; assay: Antiparasitic activity against Setaria cervi

Compound: CC1(C)OC(=O)NC(C(=O)O)c2ccc(O)cc21 (stereo not given)
- EC [1]: 3.9 mM
- EC [2]: 3.9 mM

Compound: CCCCC[C@H](O)C[C@H](O)CCc1ccc(O)c(OC)c1
- EC [3]: 0.001 mM

Compound: CCCCCCCCC/C=C/C(=O)CCc1ccc(O)c(OC)c1
- EC [3]: 0.001 mM

Compound: O=c1cc(-c2ccccc2)oc2cc(O)cc(O)c12 [CHRYSIN]
- IC50 [4]: 80 µM

Compound: C=C1CC[C@H]2[C@@](C)(CCC[C@]2(C)C(=O)O)[C@@H]1C/C=C(\C)[C@@H]1CCc2c(O)c(C(=O)CCC)c(O)c(CC3=C(O)C(C)(C)C(O)=C(C(C)=O)C3=O)c2O1
- IC50 [5]: 34 µM

Compound: O=C(O)c1ccc(O)c(O)c1 [PROTOCATECHUIC ACID]
- EC [6]: 0.78 mM

Compound: CCCC(=O)c1c(O)c(CC2=C(O)C(C)(C)C(O)=C(C(C)=O)C2=O)c(O)c(CC2=C(O)C(C)(C)C(O)=C(C(C)=O)C2=O)c1O
- IC50 [5]: 28 µM

- IC50 [7]: 3660 µM
Compound: Cc1ccc(C(C)C)c(O)c1 [THYMOL]
- IC50 [8]: 16600 µM

Compound: CC[C@H](CC[C@@H](C)[C@H]1CC[C@@H]2[C@]1(C)CC[C@H]1[C@@]2(C)CC=C2C[C@@H](O)CC[C@@]21C)C(C)C
- EC [9]: >1.2 mM

Compound: CC(C)CCCCCCCCCCCCCC(=O)OC[C@@H](O)CO
- EC [10]: 29.5 mM

Compound: O=C1C[C@@H](c2ccccc2)Oc2cc(O)cc(O)c21 [PINOCEMBRIN]
- IC50 [4]: 2 µM

Compound: C=C1C(=O)O[C@@H]2[C@H]3C(CO)=CC(=O)C3=C(C)C[C@@H](O)[C@@H]12 [LACTUCIN]
- EC [11]: 2.89 mM

Compound: CCCC(=O)C1=C(O)C(C)(C)C(O)=C(Cc2c(O)c(C)c(OC)c(C(=O)CCC)c2O)C1=O
- EC [12]: 0.01 mM

Compound: O=C1OCCN2Oc3ccccc3C12 (stereo not given)
- EC [1]: 5.23 mM
- EC [2]: 5.23 mM

Compound: CCN(CC)c1ccc2c(C)cc(=O)oc2c1
- EC [1]: 4.32 mM
- EC [2]: 4.32 mM

Compound: CCCCCC(=O)/C=C(O)/C=C/c1ccc(O)c(OC)c1
- EC [3]: 0.001 mM

Compound: C/C=C/c1ccc(OC)cc1 [ANETHOLE]
- IC50 [7]: 4650 µM
- IC50 [8]: 14200 µM

Compound: O=C/C=C/c1ccccc1 [CINNAMALDEHYDE]
- EC [13]: 0.2 mM

Compound: O=C1c2cccc(O)c2C(=O)C2C(O)=C(O)C(CO)=CC12 (stereo not given)
- EC [12]: 0.17 mM

Compound: CC[C@H](CC[C@@H](C)[C@H]1CC[C@]2(C)[C@]1(C)CC[C@@H]1[C@@]3(C)CC[C@H](O[C@@H]4O[C@H](CO)[C@@H](O)[C@H](O)[C@H]4O)CC3=CC[C@]12C)C(C)C
- EC [10]: 17.34 mM

Compound: CC1(C)CC[C@]2(C(=O)O)CC[C@]3(C)C(=CC[C@@H]4[C@@]5(C)CC[C@H](O)C(C)(C)[C@@H]5CC[C@]43C)[C@@H]2C1 [OLEANOLIC_ACID]
- EC [9]: 0.06 to 0.13 mM

Compound: CC[C@H](CC[C@@H](C)[C@H]1CC[C@@H]2[C@]1(C)CC[C@H]1[C@@]2(C)CC=C2C[C@@H](O[C@@H]3O[C@H](CO)[C@@H](O)[C@H](O)[C@H]3O)CC[C@@]21C)C(C)C
- IC50 [14]: 140 µM
- EC [9]: >0.86 mM

Compound: CCCC(=O)C1=C(O)C(C)(C)C(O)=C(Cc2c(O)c(CC3=C(O)C(C)(C)C(O)=C(C(C)=O)C3=O)c(O)c(C(=O)CCC)c2O)C1=O
- IC50 [5]: 37 µM

Compound: COc1cc(CCC(=O)C[C@@H](O)CCc2ccc(O)c(OC)c2)ccc1O
- EC [3]: 0.001 mM

Compound: C=C1CC[C@H]2[C@@](C)(CCC[C@]2(C)C(=O)O)[C@@H]1C/C=C(\C)[C@H]1CCc2c(O)c(C(=O)CCC)c(O)c(CC3=C(O)C(C)(C)C(O)=C(C(C)=O)C3=O)c2O1
- IC50 [5]: 22 µM

- IC50 [16]: 190 µM
Compound: C=C(C)[C@@H]1CC[C@]2(C)CC[C@]3(C)[C@H](CC[C@@H]4[C@@]5(C)CC[C@H](O)C(C)(C)[C@@H]5CC[C@]43C)[C@@H]12 [LUPEOL]
- IC50 [14]: 5 to 6 µM
- IC50 [15]: 50 µM

Compound: CC(C)[C@]12C=C[C@](C)(CC1)COOC2
- IC50 [17]: 7860 µM

Compound: CCCCCCCCCCCCCCCCC(=O)OC[C@@H](O)CO
- EC [10]: 29.5 mM

Compound: C=CCc1ccc(O)c(OC)c1 [EUGENOL]
- IC50 [14]: 370 µM
- IC50 [18]: 400 µM

Compound: CO[C@H]1[C@H](O)[C@@H](O)[C@@H](O)[C@H](O)[C@@H]1O [METHYLINOSITOL]
- IC50 [15]: 22700 µM

Compound: CC(C)=C[C@H](O)C[C@@H](C)[C@H]1CC[C@@]2(C)[C@@H]3[C@@H](O)C=C4[C@@H](CC[C@H](O)C4(C)C)[C@@]3(C=O)CC[C@]12C
- IC50 [14]: 30 µM

- IC50 [19]: 280 µM
- IC50 [20]: 180 µM
Compound: C=C1C(=O)O[C@@H]2[C@H]1CC/C(C)=C/CC[C@]1(C)O[C@@H]21

Compound: C=C(C)[C@@H]1CCC2(C)OC2C1 (single isomer, unassigned; (+))
- EC [12]: 0.16 mM

Compound: CCO[C@@H]1O[C@H](CO)[C@H](O)[C@H](O)[C@H]1O
- EC [9]: >2.4 mM

Compound: C[C@@H]1CC[C@]2(C(=O)O)CC[C@]3(C)C(=CC[C@@H]4[C@@]5(C)CC[C@H](O)C(C)(C)[C@@H]5CC[C@]43C)[C@@H]2[C@]1(C)O [POMOLIC ACID]
- EC [18]: 2.11 mM

Compound: COc1cc(CC/C=C/C(=O)CCc2ccc(O)c(OC)c2)ccc1O
- EC [3]: 0.001 mM

Compound: CC(C)=CC(=O)O[C@@H]1C[C@@H](C)C(C)(O)[C@H]2C3=CC[C@@H]4[C@@]5(C)CC[C@H](O)C(C)(C)[C@@H]5CC[C@@]4(C)[C@]3(C)CC[C@]21C(=O)O (stereo not given in full)
- EC [18]: 1.75 mM

Compound: CCCCCCCCCCCCCCCCCCCCCC(=O)OC[C@@H](O)CO
- EC [10]: 23.24 mM

Compound: CC(C)=CC(=O)O[C@@H]1CC(C)(C)C[C@H]2C3=CC(=O)[C@@H]4[C@]56CC[C@](O)(OC5)C(C)(C)[C@@H]6CC[C@@]4(C)[C@]3(C)CC[C@@]12C(=O)O
- EC [18]: 1.71 mM

Compound: C=C1C(=O)O[C@@H]2[C@H]3C(CO)=CC(=O)C3=C(C)CC[C@@H]12 [DEOXYLACTUCIN]
- EC [11]: 4.99 mM

Compound: C=C(C)[C@@H]1CC[C@]2(C(=O)O)CC[C@]3(C)[C@H](CC[C@@H]4[C@@]5(C)CC[C@H](O)C(C)(C)[C@@H]5CC[C@]43C)[C@@H]12 [BETULINIC ACID]
- IC50 [14]: 150 to 220 µM
- IC50 [15]: 110 µM
- EC [10]: 21.9 mM
- IC50 [16]: 180 µM

Compound: C[C@H]1CC[C@@]2(OC1)O[C@H]1C[C@H]3[C@@H]4CC[C@H]5C[C@@H](O[C@@H]6O[C@H](CO)[C@H](O[C@@H]7O[C@H](CO)[C@@H](O)[C@H](O[C@@H]8OC[C@@H](O)[C@H](O)[C@H]8O)[C@H]7O[C@@H]7OC[C@@H](O)[C@H](O)[C@H]7O)[C@H](O)[C@H]6O[C@@H]6O[C@@H](C)[C@H](O)[C@@H](O)[C@H]6O)CC[C@]5(C)[C@H]4CC[C@]3(C)[C@H]1[C@@H]2C
- IC50 [14]: 60 µM

Compound: CCCCC[C@H](O)C[C@@H](O)CCc1ccc(O)c(OC)c1
- EC [3]: 0.001 mM

Compound: C=C1CC[C@H]2[C@@](C)(CCC[C@]2(C)C(=O)O)[C@@H]1C/C=C(\C)[C@@H]1CCc2c(C)c(CC3=C(O)C(C)(C)C(O)=C(C(C)=O)C3=O)c(O)c(C(=O)CCC)c2O1
- IC50 [5]: 118 µM

Compound: C=CCc1ccc(OC)cc1 [ESTRAGOLE]
- IC50 [18]: 1250 µM

Compound: CCCC(=O)C1=C(O)C(C)(C)C(O)=C(Cc2c(OC)cc(O)c(C(=O)CCC)c2O)C1=O [DESASPIDIN]
- EC [12]: 0.01 mM

Compound: CCCCCCCCC[C@H](O)CC(=O)CCc1ccc(O)c(OC)c1
- EC [3]: 0.001 mM

Compound: CC1=CC2C(=O)c3cccc(O)c3C(=O)C2C(O)=C1O (stereo not given)
- EC [12]: 0.19 mM

Compound: CCCCC[C@H](O)CC(=O)CCc1cc(O)c(O)c(OC)c1
- EC [3]: 0.001 mM

Compound: CCC/C=C/C(=O)CCc1ccc(O)c(OC)c1
- EC [3]: 0.001 mM

Compound: O=c1c(-c2ccc(O)cc2)coc2cc(O)cc(O)c12 [GENISTEIN]
- EC [21]: 0.74 mM
- EC [22]: 0.74 mM

Compound: CCCCC/C=C/C(=O)CCc1ccc(O)c(OC)c1 [SHOGAOL]
- EC [3]: 0.001 mM

Compound: C=CCc1ccc(OC)c(OC)c1 [METHYLEUGENOL]
- IC50 [18]: 500 µM

Compound: C[C@H]1[C@H](C)CC[C@]2(C(=O)O)CC[C@]3(C)C(=CC[C@@H]4[C@@]5(C)CC[C@H](O)C(C)(C)[C@@H]5CC[C@]43C)[C@H]12 [URSOLIC ACID]
- IC50 [14]: 50 µM
- EC [18]: 2.18 mM
- EC [23]: 0.004 mM

Compound: Cc1ccc(C(C)C)cc1 [P-CYMENE]
- IC50 [17]: 3240 µM

Compound: CCCCC[C@H](O)CC(=O)CCc1ccc(O)c(OC)c1 [GINGEROL]
- EC [3]: 0.001 mM

Compound: CC(C)[C@@]12C=C[C@@](C)(CC1)OO2 [(Z)-ASCARIDOLE]
- IC50 [17]: 190 µM

Compound: CC1(C)C[C@@H](O)[C@]2(C(=O)O)CC[C@]3(C)C(=CC[C@@H]4[C@@]5(C)CCC(=O)C(C)(C)[C@@H]5CC[C@]43C)[C@@H]2C1
- EC [18]: 2.12 mM

Compound: COc1cc(/C=C/C(=O)CC(=O)/C=C/c2ccc(O)c(OC)c2)ccc1O [CURCUMIN]
- EC [12]: 0.005 mM
